Measured values as given in paper PMC7115697 (Peptides, 2016).

Key:
[1] = tested on: VLPs coated with VSV envelope protein; type: biochemical, Ebola virus
[2] = tested on: VLPs coated with Marburg virus envelope protein; type: biochemical, Ebola virus
[3] = tested on: lentiviruses coding EGFP and coated with FuG-C hybrid envelope protein; type: cell-based
human erythrocytes = settings: pH 7.4
equine erythrocytes = settings: pH 7.4

| Substance | virolytic activity on enzymatic VLPs [1] | virolytic activity on enzymatic VLPs [2] | concentrations that effectively block the virus entry [3] | inhibitory effect on lentivirus infectivity [3] | hemolytic activity (human erythrocytes) | hemolytic activity (equine erythrocytes) | amount of produced GFP (GFP fluorescence of cell lysates) [3] |
| --- | --- | --- | --- | --- | --- | --- | --- |
| GALA | moderate virolytic activity | moderate virolytic activity | above 5 μM | remarkably potent inhibitor |  |  |  |
| WEAKLAKALAKALAKHLAKALAKALKACEA |  |  |  | substantial antiviral effect | moderate hemolytic activity | moderate hemolytic activity | might slightly increase the amount of produced GFP but the increase is not significant |
| Hecate |  |  |  | substantial antiviral effect | moderately lyse human erythrocytes | virtually no effect on equine RBCs |  |
